Test results: publication PMC12032720, “Pharmacological assessment of the extract and a novel compound of Bacillus velezensis DM derived from the rhizosphere of Datura metel L. with microbial molecular screening” (BMC Complementary Medicine and Therapies, 2025)
In brackets after ≈: the same amount, converted by molar mass. Several values for one entry are separate records, joined by “and”; a condition that tells them apart may be missing. Identical values can stand only once. Like-named read-outs stand apart in the source and are kept apart here.

Legend:
[1] = Antioxidant DPPH assay; settings: mean ± SD
Experimental: Antioxidant DPPH assay: To inspect the antioxidant potential of B. velezensis DM extract, a methodology reported by Nahar et al. was used compared to Trolox. IC50 was calculated by the Graph Pad Prism (version 8, San Diego, CA, USA) (n = 3 replicates). Data are presented as mean ± SD.

[2] = tested on: HCT-116; test: MTT cytotoxicity on colon cancer cell line HCT-116; type: cell-based; settings: Homo sapiens, mean ± SD
Experimental: (§1) Diverse human cancer cell lines: liver cancer cells (HepG2), colon cancer cell line (HCT-116), and breast cancer cell line (MCF-7) were brought from VACSERA Tissue Culture Unit (Giza, Egypt). RPMI-1640 media enhanced with 10% fetal bovine serum and […] gentamycin were employed to culture the cells. The cells were incubated at 37 °C with 5% CO2. To determine the cytotoxic activity, cells were treated with various doses (0–100 µg/ mL) of B. velezensis DM extract or Doxorubicin, and their viability compared to untreated controls was assessed. Compound (1) cytotoxic potential was evaluated against HCT-116 as well as normal epithelial cells (THLE2) to calculate the selectivity index (SI) as formerly depicted.
(§2) IC50 was calculated by the Graph Pad Prism (version 8, San Diego, CA, USA) (n = 3 replicates). Data are presented as mean ± SD.

[3] = tested on: THLE-2 normal cell line; test: Cytotoxicity on normal epithelial cells THLE-2 (selectivity index); type: cell-based; settings: for IC50: Homo sapiens, THLE-2, normal cell line, mean ± SD; for SI (selectivity index): THLE-2 versus HCT-116
Experimental: as §1, §2

[4] = Antioxidant ABTS assay; settings: mean ± SD
Experimental: Antioxidant ABTS assay: the capacity of B. velezensis DM extract to scavenge ABTS radical cations was assessed compared to Quercetin at a range of concentrations, including 300, 150, 75, 25, and 10 µg/ mL [38].
as §2

[5] = compound (1) experiment, read-out: IC50 HCT-116 (Table 4)

Cc1c(C)c2c(c(C)c1O)CCC(C)(C(=O)O)O2 (stereo not drawn) [Trolox]
DPPH (IC50) [1]: 113.31 ± 4.2 µg/mL

COc1cccc2c1C(=O)c1c(O)c3c(c(O)c1C2=O)C[C@@](O)(C(=O)CO)C[C@@H]3O[C@H]1C[C@H](N)[C@H](O)[C@H](C)O1 [Doxorubicin (DOX), Doxorubicin]
IC50 ([2]; MTT, 0–100 µg/mL, n = 3, read-out: IC50 HCT-116 (Table 3)): 4.82 ± 0.18 µg/mL (≈ 8.87 µM) | IC50 [2, 5]: 11.7 ± 0.4 µg/mL (≈ 21.5 µM) | IC50 [3]: 17.4 ± 1.25 µg/mL (≈ 32.1 µM) | SI (selectivity index) [3]: 1.49

CNC=C(CC(O)C(O)CO)NC (stereo not drawn) [Compound (1), 5,6-di(methylamino)hex-5-ene-1,2,3-triol]
IC50 [2, 5]: 27 ± 1.85 µg/mL (≈ 142 µM) | IC50 [3]: 68.7 ± 3.34 µg/mL (≈ 361 µM) | SI (selectivity index) [3]: 2.5 and 2.54

O=c1c(O)c(-c2ccc(O)c(O)c2)oc2cc(O)cc(O)c12 [Quercetin]
ABTS (IC50) [4]: 42.13 ± 1.92 µg/mL
